Source: PMC4984525 (Cancer, 2011)

Tests used:
[1] = Plasma pharmacokinetics of ARRY-520; format: in vivo, human; conditions: human, plasma, intravenous
[2] = tested on: tumor cell; conditions: background statement; cited from earlier work
[3] = tested on: K562; conditions: K562 subcutaneous xenograft, mouse; cited from earlier work

CON(C)C(=O)N1N=C(c2cc(F)ccc2F)S[C@@]1(CCCN)c1ccccc1 [ARRY-520]
AUC(0-t) ([1]; 1.8 mg/m^2, AUC0–24, Schedule 2, Cycle 1 Day 1, 1.8 mg/m^2 (N=2), geometric mean): 208 ng·h/mL
AUC(0-t) ([1]; 1.8 mg/m^2, AUC0–24, Schedule 2, Cycle 1 Day 5, 1.8 mg/m^2 (N=2), geometric mean): 608 ng·h/mL
clearance ([1]; 1.8 mg/m^2, CL, Schedule 2, Cycle 1 Day 1, 1.8 mg/m^2 (N=2), geometric mean): 130 mL/min
clearance ([1]; 1.8 mg/m^2, CL, Schedule 2, Cycle 1 Day 5, 1.8 mg/m^2 (N=2), geometric mean): 18.3 mL/min
Cmax ([1]; 1.8 mg/m^2, Cmax, Schedule 2, Cycle 1 Day 1, 1.8 mg/m^2 (N=2), geometric mean): 24.4 ng/mL
Cmax ([1]; 1.8 mg/m^2, Cmax, Schedule 2, Cycle 1 Day 5, 1.8 mg/m^2 (N=2), geometric mean): 53.6 ng/mL
MRT ([1]; 1.8 mg/m^2, MRT, Schedule 2, Cycle 1 Day 5, 1.8 mg/m^2 (N=2), median (min-max)): 114 h
Tmax ([1]; 1.8 mg/m^2, Tmax, Schedule 2, Cycle 1 Day 1, 1.8 mg/m^2 (N=2), median (min-max)): 1 h
Tmax ([1]; 1.8 mg/m^2, Tmax, Schedule 2, Cycle 1 Day 5, 1.8 mg/m^2 (N=2), median (min-max)): 1 h
Vd ([1]; 1.8 mg/m^2, Vss, Schedule 2, Cycle 1 Day 1, 1.8 mg/m^2 (N=2), mean): 306 L
Vd ([1]; 1.8 mg/m^2, Vss, Schedule 2, Cycle 1 Day 5, 1.8 mg/m^2 (N=2), mean): 127 L
half-life ([1]; 1.8 mg/m^2, t1/2, Schedule 2, Cycle 1 Day 1, 1.8 mg/m^2 (N=2), median (min-max)): 27.1 h
half-life ([1]; 1.8 mg/m^2, t1/2, Schedule 2, Cycle 1 Day 5, 1.8 mg/m^2 (N=2), median (min-max)): 80 h
AUC(0-inf) ([1]; 2.5 mg/m^2): 1650 ng·h/mL
clearance ([1]; 2.5 mg/m^2, CL, Schedule 1, Cycle 1 Day 1, 2.5 mg/m^2 (N=3), geometric mean (geometric %CV)): 44.8 mL/min
Cmax ([1]; 2.5 mg/m^2, Cmax, Schedule 1, Cycle 1 Day 1, 2.5 mg/m^2 (N=3), geometric mean (geometric %CV)): 132 ng/mL
MRT ([1]; 2.5 mg/m^2, MRT, Schedule 1, Cycle 1 Day 1, 2.5 mg/m^2 (N=3), median (min-max)): 92.7 h
Tmax ([1]; 2.5 mg/m^2, Tmax, Schedule 1, Cycle 1 Day 1, 2.5 mg/m^2 (N=3), median (min-max)): 2 h
Vd ([1]; 2.5 mg/m^2, Vss, Schedule 1, Cycle 1 Day 1, 2.5 mg/m^2 (N=3), mean (%CV)): 405 L
half-life ([1]; 2.5 mg/m^2, t1/2, Schedule 1, Cycle 1 Day 1, 2.5 mg/m^2 (N=3), median (min-max)): 97.2 h
AUC(0-t) ([1]; 3.6 mg/m^2, AUC0–24, Schedule 2, Cycle 1 Day 1, 3.6 mg/m^2 (N=1), geometric mean): 345 ng·h/mL
AUC(0-t) ([1]; 3.6 mg/m^2, AUC0–24, Schedule 2, Cycle 1 Day 5, 3.6 mg/m^2 (N=1), geometric mean): 733 ng·h/mL
clearance ([1]; 3.6 mg/m^2, CL, Schedule 2, Cycle 1 Day 1, 3.6 mg/m^2 (N=1), geometric mean): 187 mL/min
clearance ([1]; 3.6 mg/m^2, CL, Schedule 2, Cycle 1 Day 5, 3.6 mg/m^2 (N=1), geometric mean): 22.2 mL/min
Cmax ([1]; 3.6 mg/m^2, Cmax, Schedule 2, Cycle 1 Day 1, 3.6 mg/m^2 (N=1), geometric mean): 73.9 ng/mL
Cmax ([1]; 3.6 mg/m^2, Cmax, Schedule 2, Cycle 1 Day 5, 3.6 mg/m^2 (N=1), geometric mean): 199 ng/mL
MRT ([1]; 3.6 mg/m^2, MRT, Schedule 2, Cycle 1 Day 5, 3.6 mg/m^2 (N=1), median (min-max)): 152 h
Tmax ([1]; 3.6 mg/m^2, Tmax, Schedule 2, Cycle 1 Day 1, 3.6 mg/m^2 (N=1), median (min-max)): 1 h
Tmax ([1]; 3.6 mg/m^2, Tmax, Schedule 2, Cycle 1 Day 5, 3.6 mg/m^2 (N=1), median (min-max)): 1.08 h
Vd ([1]; 3.6 mg/m^2, Vss, Schedule 2, Cycle 1 Day 1, 3.6 mg/m^2 (N=1), mean): 278 L
Vd ([1]; 3.6 mg/m^2, Vss, Schedule 2, Cycle 1 Day 5, 3.6 mg/m^2 (N=1), mean): 202 L
half-life ([1]; 3.6 mg/m^2, t1/2, Schedule 2, Cycle 1 Day 1, 3.6 mg/m^2 (N=1), median (min-max)): 18.7 h
half-life ([1]; 3.6 mg/m^2, t1/2, Schedule 2, Cycle 1 Day 5, 3.6 mg/m^2 (N=1), median (min-max)): 108 h
AUC(0-inf) ([1]; 3.75 mg/m^2): 1480 ng·h/mL
clearance ([1]; 3.75 mg/m^2, CL, Schedule 1, Cycle 1 Day 1, 3.75 mg/m^2 (N=1), geometric mean): 113 mL/min
Cmax ([1]; 3.75 mg/m^2, Cmax, Schedule 1, Cycle 1 Day 1, 3.75 mg/m^2 (N=1), geometric mean): 31.1 ng/mL
MRT ([1]; 3.75 mg/m^2, MRT, Schedule 1, Cycle 1 Day 1, 3.75 mg/m^2 (N=1), median (min-max)): 127 h
Tmax ([1]; 3.75 mg/m^2, Tmax, Schedule 1, Cycle 1 Day 1, 3.75 mg/m^2 (N=1), median (min-max)): 1 h
Vd ([1]; 3.75 mg/m^2, Vss, Schedule 1, Cycle 1 Day 1, 3.75 mg/m^2 (N=1), mean): 857 L
half-life ([1]; 3.75 mg/m^2, t1/2, Schedule 1, Cycle 1 Day 1, 3.75 mg/m^2 (N=1), median (min-max)): 100 h
AUC(0-inf) ([1]; 4.5 mg/m^2): 3000 ng·h/mL
clearance ([1]; 4.5 mg/m^2, CL, Schedule 1, Cycle 1 Day 1, 4.5 mg/m^2 (N=4), geometric mean (geometric %CV)): 49.2 mL/min
Cmax ([1]; 4.5 mg/m^2, Cmax, Schedule 1, Cycle 1 Day 1, 4.5 mg/m^2 (N=4), geometric mean (geometric %CV)): 53.4 ng/mL
MRT ([1]; 4.5 mg/m^2, MRT, Schedule 1, Cycle 1 Day 1, 4.5 mg/m^2 (N=4), median (min-max)): 142 h
Tmax ([1]; 4.5 mg/m^2, Tmax, Schedule 1, Cycle 1 Day 1, 4.5 mg/m^2 (N=4), median (min-max)): 1.01 h
Vd ([1]; 4.5 mg/m^2, Vss, Schedule 1, Cycle 1 Day 1, 4.5 mg/m^2 (N=4), mean (%CV)): 340 L
half-life ([1]; 4.5 mg/m^2, t1/2, Schedule 1, Cycle 1 Day 1, 4.5 mg/m^2 (N=4), median (min-max)): 100 h
AUC(0-inf) ([1]; 5.6 mg/m^2): 2520 ng·h/mL
clearance ([1]; 5.6 mg/m^2, CL, Schedule 1, Cycle 1 Day 1, 5.6 mg/m^2 (N=2), geometric mean): 71.7 mL/min
Cmax ([1]; 5.6 mg/m^2, Cmax, Schedule 1, Cycle 1 Day 1, 5.6 mg/m^2 (N=2), geometric mean): 49.6 ng/mL
MRT ([1]; 5.6 mg/m^2, MRT, Schedule 1, Cycle 1 Day 1, 5.6 mg/m^2 (N=2), median (min-max)): 131 h
Tmax ([1]; 5.6 mg/m^2, Tmax, Schedule 1, Cycle 1 Day 1, 5.6 mg/m^2 (N=2), median (min-max)): 0.959 h
Vd ([1]; 5.6 mg/m^2, Vss, Schedule 1, Cycle 1 Day 1, 5.6 mg/m^2 (N=2), mean): 515 L
half-life ([1]; 5.6 mg/m^2, t1/2, Schedule 1, Cycle 1 Day 1, 5.6 mg/m^2 (N=2), median (min-max)): 92.5 h
clearance ([1]; CL, Schedule 1, Cycle 1 Day 1, Schedule Total (N=10), geometric mean (geometric %CV)): 56 mL/min
clearance ([1]; CL, Schedule 2, Cycle 1 Day 1, Schedule Total (N=18), geometric mean (geometric %CV)): 119 mL/min
clearance ([1]; CL, Schedule 2, Cycle 1 Day 5, Schedule Total (N=18), geometric mean (geometric %CV)): 19.8 mL/min
clearance ([1]; CL, range across cohorts, Schedule 1, Cycle 1): 44.8 to 113 mL/min
MRT ([1]; MRT, Schedule 1, Cycle 1 Day 1, Schedule Total (N=10), median (min-max)): 127 h
Tmax ([1]; Tmax, Schedule 1, Cycle 1 Day 1, Schedule Total (N=10), median (min-max)): 1 h
Tmax ([1]; Tmax, Schedule 2, Cycle 1 Day 1, Schedule Total (N=18), median (min-max)): 1 h
Tmax ([1]; Tmax, Schedule 2, Cycle 1 Day 5, Schedule Total (N=18), median (min-max)): 1 h
Vd ([1]; Vss, Schedule 1, Cycle 1 Day 1, Schedule Total (N=10), mean (%CV)): 446 L
Vd ([1]; Vss, Schedule 2, Cycle 1 Day 1, Schedule Total (N=18), mean (%CV)): 306 L
Vd ([1]; Vss, Schedule 2, Cycle 1 Day 5, Schedule Total (N=18), mean (%CV)): 191 L
clearance ([1]; clearance, plasma PK, abstract summary): ~50 mL/min
clearance ([1]; geometric mean CL, Schedule 1, Cycle 2, all patients, N=4): 50.3 mL/min
MRT ([1]; median MRT, Schedule 1): 127 h
half-life ([1]; median terminal t1/2, plasma PK, summary): > 90 h
half-life ([1]; t1/2, Schedule 1, Cycle 1 Day 1, Schedule Total (N=10), median (min-max)): 98.6 h
half-life ([1]; t1/2, Schedule 2, Cycle 1 Day 1, Schedule Total (N=18), median (min-max)): 26.1 h
concentrations inducing mitotic arrest and tumor cell death [2]: sub-nanomolar
anti-cancer efficacy [3]: demonstrated anti-cancer efficacy
